From ChEMBL document CHEMBL1201862, “PubChem BioAssay data set” (2004)
Activity calls are given as the source filed them.

Columns and labels:
[1] = molecular target: SWI/SNF-related matrix-associated actin-dependent regulator of chromatin subfamily A member 2 (Homo sapiens, UniProt P51531); test: Luminescence-based cell-based high throughput dose response assay to identify activators of the function of SWI/SNF related, matrix associated, actin dependent regulator of chromatin, subfamily a, member 2 (SMARCA2, BRM).; type: functional
[2] = Counterscreen for activators of the function of SWI/SNF related, matrix associated, actin dependent regulator of chromatin, subfamily a, member 2 (SMARCA2, BRM): Luminescence-based cell-based high throughput dose response assay to identify non-selective compounds using the VP16 reporter assay.; type: functional
INS1 = test: INS-1E survival protection against cytokine death – cell-based, luminescence, retest, dose response (AID 449756); type: functional; conditions: Rattus norvegicus;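 also: cell death triggered by IL-1 beta plus TNF-alpha plus IFN-gamma mixture; protective hits raise ATP signal compared with cytokine alone wells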
[3] = blockers of HIV-1 envelope-mediated cell-cell fusion – cherry-pick, dose response (AID 652057); type: functional, cell-based
[4] = off-target signal loss in HeLa-CEM21 co-culture – HeLa F-luc CTL cells, cherry-picked, counter-screen for HIV-1 Env fusion inhibitor project, dose response (AID 652040); type: functional, cell-based;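 also: potency for signal decrease marking cytotoxic or nonspecific inhibition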
[5] = blockers of HIV-1 ZM109 envelope-driven cell-cell fusion – HeLa effector, CEM target cells, luciferase, cherry-pick, dose response (AID 652058); type: functional, cell-based;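 also: luciferase signal from HIV-1 Env mediated cell-cell fusion of effector and target cells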
[6] = viability loss in CEM21 cells – cell-based, CellTiter-Glo luminescence, cherry-picked, cytotoxicity control for viral fusion inhibitor project, dose response (AID 652042); type: functional;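 also: potency for signal decrease meaning cytotoxicity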
[7] = HIV-1 AD8 envelope cell-cell fusion blockers – cherry-pick, dose response (AID 652062); type: functional, cell-based;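 also: luciferase signal from cell-cell fusion driven by HIV-1 clade B AD8 Env; potency is for inhibitors of fusion seen as a drop in luminescence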
Vero [8] = test: viability of Vero cells under compound – cytotoxicity control for flavivirus capping enzyme inhibitors (AID 588742); type: functional; conditions: Chlorocebus sabaeus
[9] = molecular target: Induced myeloid leukemia cell differentiation protein Mcl-1 (Homo sapiens, UniProt Q07820); type: functional
Genome polyprotein = Genome polyprotein (dengue virus type 2, UniProt P29990); test: flavivirus cap methylation enzyme inhibition – biochemical, confirmation dose response, primary screen (AID 588689); type: functional
[10] = molecular target: T1, Mannose-6-phosphate isomerase (Homo sapiens, UniProt P34949); test: MPI inhibition at elevated mannose 6-phosphate – biochemical, fluorescence intensity, high mannose 6-phosphate, primary screen (AID 1220)
T1 sequence (P34949 whole entry): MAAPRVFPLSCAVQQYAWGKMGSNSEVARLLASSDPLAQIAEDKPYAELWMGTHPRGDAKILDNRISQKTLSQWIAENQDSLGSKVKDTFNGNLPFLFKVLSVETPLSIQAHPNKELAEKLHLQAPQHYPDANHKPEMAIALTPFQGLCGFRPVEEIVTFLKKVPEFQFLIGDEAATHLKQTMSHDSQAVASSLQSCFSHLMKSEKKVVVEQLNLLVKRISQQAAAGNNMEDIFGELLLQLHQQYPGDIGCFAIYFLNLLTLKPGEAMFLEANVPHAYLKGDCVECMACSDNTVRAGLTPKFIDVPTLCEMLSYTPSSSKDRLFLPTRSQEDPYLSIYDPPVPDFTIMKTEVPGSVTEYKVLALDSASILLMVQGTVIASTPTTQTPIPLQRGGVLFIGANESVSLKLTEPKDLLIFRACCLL

Mu-type opioid receptor = Mu-type opioid receptor (Homo sapiens, UniProt P35372); type: functional, cell-based;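 also: U2OS cells with beta-arrestin recruitment to OPRM1 by beta-gal complementation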
[11] = molecular target: 5-hydroxytryptamine receptor 2A (Mus musculus, UniProt P35363); type: functional, cell-based;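 also: CHO-K1 cells with tagged receptor and beta-arrestin; agonist potency measured as compound-induced activation of the receptor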
[12] = molecular target: T2, Histone-lysine N-methyltransferase NSD2 (Homo sapiens, UniProt O96028); type: biochemical
T2 sequence (O96028 whole entry): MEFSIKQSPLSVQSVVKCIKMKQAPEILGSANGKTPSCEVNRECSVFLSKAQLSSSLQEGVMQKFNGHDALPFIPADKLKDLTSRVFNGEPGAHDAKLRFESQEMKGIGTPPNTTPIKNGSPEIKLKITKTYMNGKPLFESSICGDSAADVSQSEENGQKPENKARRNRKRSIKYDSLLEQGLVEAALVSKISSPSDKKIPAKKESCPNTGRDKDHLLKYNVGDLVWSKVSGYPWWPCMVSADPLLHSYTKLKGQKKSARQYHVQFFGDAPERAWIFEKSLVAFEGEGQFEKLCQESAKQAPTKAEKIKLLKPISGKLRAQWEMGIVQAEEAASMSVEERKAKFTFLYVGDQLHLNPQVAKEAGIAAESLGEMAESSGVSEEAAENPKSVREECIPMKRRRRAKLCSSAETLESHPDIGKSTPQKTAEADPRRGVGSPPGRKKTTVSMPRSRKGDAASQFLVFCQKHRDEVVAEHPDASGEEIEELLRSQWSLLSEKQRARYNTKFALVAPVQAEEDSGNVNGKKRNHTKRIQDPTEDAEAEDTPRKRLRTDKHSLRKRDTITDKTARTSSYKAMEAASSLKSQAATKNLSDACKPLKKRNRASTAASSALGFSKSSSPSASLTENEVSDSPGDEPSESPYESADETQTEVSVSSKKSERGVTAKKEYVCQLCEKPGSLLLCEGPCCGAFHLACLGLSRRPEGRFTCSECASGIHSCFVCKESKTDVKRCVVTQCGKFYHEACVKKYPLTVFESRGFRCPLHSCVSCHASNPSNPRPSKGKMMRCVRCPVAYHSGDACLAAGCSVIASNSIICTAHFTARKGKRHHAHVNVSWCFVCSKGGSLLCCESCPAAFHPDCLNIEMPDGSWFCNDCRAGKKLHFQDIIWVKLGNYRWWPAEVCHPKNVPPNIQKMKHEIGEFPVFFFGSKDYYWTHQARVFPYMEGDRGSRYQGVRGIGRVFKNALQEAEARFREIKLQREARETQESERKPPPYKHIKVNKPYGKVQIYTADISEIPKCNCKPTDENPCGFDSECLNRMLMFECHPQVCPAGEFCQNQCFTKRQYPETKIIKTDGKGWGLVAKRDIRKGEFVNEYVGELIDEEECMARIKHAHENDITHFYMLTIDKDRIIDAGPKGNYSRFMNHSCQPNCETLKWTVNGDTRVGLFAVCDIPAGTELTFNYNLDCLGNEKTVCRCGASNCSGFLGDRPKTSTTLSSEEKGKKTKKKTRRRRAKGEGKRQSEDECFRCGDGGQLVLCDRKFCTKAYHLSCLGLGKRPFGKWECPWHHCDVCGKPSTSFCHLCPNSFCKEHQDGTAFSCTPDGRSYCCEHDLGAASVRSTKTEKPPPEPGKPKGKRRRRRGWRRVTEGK

[13] = molecular target: Eukaryotic translation initiation factor 4E (Mus musculus, UniProt P63073); test: blockers of eIF4G binding by eIF4E – biochemical, TR-FRET, dose response (AID 855); type: functional;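 also: potency for disrupting eIF4E binding to eIF4GI seen as loss of FRET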
[14] = T. cruzi growth inhibition in host cells, dose response, cell-based, plate reader, dry powder, set 2 (AID 652275); type: functional
[15] = general mammalian cell viability loss – inhibitor set, cherry-pick, set 2, cytotoxicity control for miR-122 modulator project, dose response (AID 720697); type: functional, cell-based
Fatty acid synthase [16] = molecular target: T3, Fatty acid synthase (Homo sapiens, UniProt P49327); test: inhibition of human FAS-TE enzyme activity – biochemical, endpoint fluorescence intensity, uHTS hits, dose response (AID 624327); type: functional;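 also: fluorescence from hydrolysis of an O-methyl fluorescein acyl ester substrate by the enzyme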
Fatty acid synthase [17] = molecular target: T3, Fatty acid synthase; test: inhibition of human FAS-TE enzyme activity – biochemical, kinetic fluorescence intensity, dose response (AID 624326); type: functional;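 also: rate of fluorescence rise from hydrolysis of a fluorogenic O-methyl fluorescein ester substrate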
Albumin = Albumin (Bos taurus, UniProt P02769); test: Counterscreen for inhibitors of T-cell receptor (TCR)-CD3 interaction: Fluorescence-based biochemical high throughput dose response assay to identify inhibitors of T-cell receptor (TCR)-CD3 interaction using a TAMRA-labeled BSA probe.; type: functional
Vero [18] = test: cells; type: functional; conditions: Chlorocebus sabaeus

T3 sequence (P49327 whole entry): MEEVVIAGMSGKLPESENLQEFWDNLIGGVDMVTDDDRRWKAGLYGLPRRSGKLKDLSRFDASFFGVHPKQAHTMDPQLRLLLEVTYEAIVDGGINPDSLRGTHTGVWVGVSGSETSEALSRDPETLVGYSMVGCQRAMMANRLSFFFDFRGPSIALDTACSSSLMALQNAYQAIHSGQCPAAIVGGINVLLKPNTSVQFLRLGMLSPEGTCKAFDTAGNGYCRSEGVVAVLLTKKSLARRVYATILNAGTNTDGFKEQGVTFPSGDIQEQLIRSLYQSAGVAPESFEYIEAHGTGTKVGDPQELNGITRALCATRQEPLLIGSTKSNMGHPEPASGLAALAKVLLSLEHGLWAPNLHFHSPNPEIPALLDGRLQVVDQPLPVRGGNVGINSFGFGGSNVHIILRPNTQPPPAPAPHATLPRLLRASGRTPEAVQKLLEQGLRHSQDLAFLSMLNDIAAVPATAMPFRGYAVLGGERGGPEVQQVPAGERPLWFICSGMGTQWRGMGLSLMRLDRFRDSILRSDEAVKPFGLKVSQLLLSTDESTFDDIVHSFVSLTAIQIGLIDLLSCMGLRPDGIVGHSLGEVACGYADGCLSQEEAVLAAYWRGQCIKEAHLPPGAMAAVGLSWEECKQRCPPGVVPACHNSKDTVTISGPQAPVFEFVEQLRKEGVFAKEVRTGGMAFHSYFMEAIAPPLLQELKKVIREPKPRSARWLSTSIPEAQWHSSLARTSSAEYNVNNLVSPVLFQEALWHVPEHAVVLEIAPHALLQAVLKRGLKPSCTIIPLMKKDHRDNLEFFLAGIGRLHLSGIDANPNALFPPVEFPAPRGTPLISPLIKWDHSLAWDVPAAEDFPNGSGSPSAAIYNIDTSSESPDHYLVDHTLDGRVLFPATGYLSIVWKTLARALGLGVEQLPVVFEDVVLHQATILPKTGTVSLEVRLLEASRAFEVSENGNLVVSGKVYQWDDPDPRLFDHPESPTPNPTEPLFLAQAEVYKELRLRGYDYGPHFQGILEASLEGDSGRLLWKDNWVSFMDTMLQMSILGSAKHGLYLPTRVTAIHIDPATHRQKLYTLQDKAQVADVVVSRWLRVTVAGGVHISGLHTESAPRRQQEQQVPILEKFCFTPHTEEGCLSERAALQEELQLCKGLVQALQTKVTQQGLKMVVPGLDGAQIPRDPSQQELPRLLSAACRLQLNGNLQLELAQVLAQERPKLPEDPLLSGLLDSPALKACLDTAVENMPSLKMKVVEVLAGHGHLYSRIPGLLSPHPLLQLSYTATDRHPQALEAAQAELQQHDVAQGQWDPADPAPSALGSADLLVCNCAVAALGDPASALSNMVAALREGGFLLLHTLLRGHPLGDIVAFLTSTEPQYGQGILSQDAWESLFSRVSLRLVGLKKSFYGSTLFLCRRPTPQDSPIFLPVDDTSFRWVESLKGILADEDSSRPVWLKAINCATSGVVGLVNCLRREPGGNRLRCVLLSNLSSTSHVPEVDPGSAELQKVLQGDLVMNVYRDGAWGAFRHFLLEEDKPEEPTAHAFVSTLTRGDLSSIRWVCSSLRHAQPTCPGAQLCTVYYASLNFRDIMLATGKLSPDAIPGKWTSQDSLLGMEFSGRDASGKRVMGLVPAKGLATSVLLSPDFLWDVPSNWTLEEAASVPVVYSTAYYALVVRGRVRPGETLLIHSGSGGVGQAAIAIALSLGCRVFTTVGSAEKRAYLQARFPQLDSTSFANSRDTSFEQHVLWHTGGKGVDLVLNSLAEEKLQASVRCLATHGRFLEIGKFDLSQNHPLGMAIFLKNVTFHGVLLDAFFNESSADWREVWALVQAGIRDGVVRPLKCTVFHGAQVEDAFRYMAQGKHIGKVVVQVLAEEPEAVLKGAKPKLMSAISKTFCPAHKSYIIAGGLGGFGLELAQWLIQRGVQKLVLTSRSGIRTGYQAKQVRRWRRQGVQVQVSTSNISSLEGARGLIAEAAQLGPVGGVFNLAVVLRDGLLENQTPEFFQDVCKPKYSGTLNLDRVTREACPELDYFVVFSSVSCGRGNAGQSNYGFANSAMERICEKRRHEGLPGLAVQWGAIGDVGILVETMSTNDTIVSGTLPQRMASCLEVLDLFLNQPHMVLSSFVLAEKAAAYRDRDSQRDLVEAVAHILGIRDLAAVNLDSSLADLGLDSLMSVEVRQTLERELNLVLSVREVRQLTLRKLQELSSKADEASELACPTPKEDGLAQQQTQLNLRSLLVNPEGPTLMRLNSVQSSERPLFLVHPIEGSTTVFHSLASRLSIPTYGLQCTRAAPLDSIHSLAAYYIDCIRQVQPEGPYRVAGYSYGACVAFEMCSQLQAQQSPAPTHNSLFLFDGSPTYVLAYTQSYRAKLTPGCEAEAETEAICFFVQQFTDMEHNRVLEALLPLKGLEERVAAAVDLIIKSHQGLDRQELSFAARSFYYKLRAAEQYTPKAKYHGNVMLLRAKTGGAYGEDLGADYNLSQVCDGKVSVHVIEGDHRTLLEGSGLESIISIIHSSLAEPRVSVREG
SWI/SNF-related matrix-associated actin-dependent regulator of chromatin subfamily A member 2, sequence (P51531 whole entry): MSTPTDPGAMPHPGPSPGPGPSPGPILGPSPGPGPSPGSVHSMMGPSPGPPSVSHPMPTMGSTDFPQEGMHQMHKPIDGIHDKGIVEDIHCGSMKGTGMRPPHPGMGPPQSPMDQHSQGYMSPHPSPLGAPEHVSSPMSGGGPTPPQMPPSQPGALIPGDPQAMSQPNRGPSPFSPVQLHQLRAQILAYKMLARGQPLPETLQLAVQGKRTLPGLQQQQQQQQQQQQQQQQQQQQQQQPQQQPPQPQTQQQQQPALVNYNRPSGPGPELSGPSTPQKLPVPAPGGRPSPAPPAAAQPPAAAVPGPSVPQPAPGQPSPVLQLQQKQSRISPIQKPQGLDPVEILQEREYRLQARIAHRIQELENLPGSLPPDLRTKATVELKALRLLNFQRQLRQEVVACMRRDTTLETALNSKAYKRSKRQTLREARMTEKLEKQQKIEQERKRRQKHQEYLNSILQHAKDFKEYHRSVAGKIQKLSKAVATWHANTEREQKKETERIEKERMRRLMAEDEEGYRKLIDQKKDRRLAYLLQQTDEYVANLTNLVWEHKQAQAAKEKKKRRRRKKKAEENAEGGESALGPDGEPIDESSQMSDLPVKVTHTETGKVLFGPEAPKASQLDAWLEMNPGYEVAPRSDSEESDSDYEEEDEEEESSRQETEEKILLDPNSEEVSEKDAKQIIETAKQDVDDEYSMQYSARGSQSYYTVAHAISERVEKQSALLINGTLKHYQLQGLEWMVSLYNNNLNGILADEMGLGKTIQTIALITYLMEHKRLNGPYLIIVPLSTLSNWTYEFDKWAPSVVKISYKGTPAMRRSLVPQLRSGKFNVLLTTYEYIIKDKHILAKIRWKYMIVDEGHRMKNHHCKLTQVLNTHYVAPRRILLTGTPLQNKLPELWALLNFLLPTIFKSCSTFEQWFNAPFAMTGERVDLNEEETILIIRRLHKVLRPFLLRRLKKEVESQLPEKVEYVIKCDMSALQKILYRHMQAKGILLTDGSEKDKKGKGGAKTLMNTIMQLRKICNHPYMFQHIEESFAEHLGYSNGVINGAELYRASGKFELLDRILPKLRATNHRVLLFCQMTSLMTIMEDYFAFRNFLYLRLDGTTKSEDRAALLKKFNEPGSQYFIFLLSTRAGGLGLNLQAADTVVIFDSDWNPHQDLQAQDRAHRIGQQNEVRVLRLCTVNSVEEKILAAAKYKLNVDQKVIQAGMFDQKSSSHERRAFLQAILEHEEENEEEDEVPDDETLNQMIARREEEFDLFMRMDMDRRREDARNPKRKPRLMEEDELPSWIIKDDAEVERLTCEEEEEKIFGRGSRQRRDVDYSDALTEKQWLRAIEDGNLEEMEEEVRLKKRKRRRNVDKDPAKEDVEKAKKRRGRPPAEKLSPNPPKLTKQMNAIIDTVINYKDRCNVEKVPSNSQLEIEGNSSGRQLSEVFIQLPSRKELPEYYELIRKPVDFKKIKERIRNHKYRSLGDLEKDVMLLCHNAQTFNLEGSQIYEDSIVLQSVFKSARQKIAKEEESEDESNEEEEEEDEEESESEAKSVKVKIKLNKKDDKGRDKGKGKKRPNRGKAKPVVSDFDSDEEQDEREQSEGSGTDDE
5-hydroxytryptamine receptor 2A, sequence (P35363 whole entry): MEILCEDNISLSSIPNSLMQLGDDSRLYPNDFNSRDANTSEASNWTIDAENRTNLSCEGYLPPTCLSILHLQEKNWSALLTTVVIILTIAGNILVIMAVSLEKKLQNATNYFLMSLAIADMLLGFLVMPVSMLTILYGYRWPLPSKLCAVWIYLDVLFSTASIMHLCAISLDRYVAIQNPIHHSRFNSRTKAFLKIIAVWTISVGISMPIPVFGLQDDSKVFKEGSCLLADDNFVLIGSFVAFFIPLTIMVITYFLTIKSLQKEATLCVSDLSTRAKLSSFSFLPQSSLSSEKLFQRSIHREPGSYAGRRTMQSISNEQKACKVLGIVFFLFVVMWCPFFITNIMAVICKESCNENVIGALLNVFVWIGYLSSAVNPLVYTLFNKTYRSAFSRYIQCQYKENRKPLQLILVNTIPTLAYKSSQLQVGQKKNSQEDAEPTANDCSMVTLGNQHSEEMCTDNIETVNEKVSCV
Mu-type opioid receptor, sequence (P35372 whole entry): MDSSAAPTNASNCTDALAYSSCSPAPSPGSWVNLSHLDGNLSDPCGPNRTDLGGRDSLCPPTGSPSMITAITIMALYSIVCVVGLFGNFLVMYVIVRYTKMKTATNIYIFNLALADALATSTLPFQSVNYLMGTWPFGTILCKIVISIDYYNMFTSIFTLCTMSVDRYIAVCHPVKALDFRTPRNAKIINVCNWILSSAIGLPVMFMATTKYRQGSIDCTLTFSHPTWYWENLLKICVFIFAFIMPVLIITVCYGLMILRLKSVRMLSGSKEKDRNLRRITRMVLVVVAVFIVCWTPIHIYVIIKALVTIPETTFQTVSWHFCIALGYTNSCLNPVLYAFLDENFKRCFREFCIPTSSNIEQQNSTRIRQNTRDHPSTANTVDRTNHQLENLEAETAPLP

O=C(/C=C/c1ccc(-c2ccccc2)o1)c1ccccc1
EC50 [1]: > 91.2 µM (inactive) | EC50 [2]: > 91.2 µM (inactive)

S=C(NCCCN1CCOCC1)N1CCN(c2nc(-c3ccc(Cl)cc3)cs2)CC1
AC50 (INS1): 11.2 µM (active) | AC50 [3]: 31 µM (active) | AC50 [4]: 25.9 µM (active) | AC50 [5]: 0.888 µM (active) | AC50 [6]: 19.9 µM (active) | AC50 [7]: 7.13 µM (active)

COCC/N=c1\scc(-c2ccco2)n1/N=C/c1ccc(O)c(O)c1O
CC50 (Vero [8]): 38.6 µM (active) | IC50 [9]: 1.6 µM (active) | IC50 (Genome polyprotein): > 100 µM (active) | IC50 [10]: 32 µM (active) | EC50 (Mu-type opioid receptor): 92.5 µM (inactive) | EC50 [11]: 11.6 µM (inactive) | AC50 [12]: 1.16 µM (active) | IC50 [13]: 36 µM (inactive)

C[C@H]1CN([C@@H](C)CO)C(=O)c2cccc(NC(=O)c3ccncc3)c2O[C@@H]1CN(C)Cc1ccccc1C(F)(F)F
AC50 [14]: 0.0342 µM (active)

C[C@@H]1CN([C@@H](C)CO)S(=O)(=O)c2ccc(/C=C/c3ccccc3)cc2O[C@@H]1CN(C)C(=O)NC1CCCCC1
AC50 [15]: 0.533 µM (active)

O=C(N/N=C/c1cc([N+](=O)[O-])cc([N+](=O)[O-])c1O)/C(=C\c1cccs1)NC(=O)c1ccccc1
IC50 (Fatty acid synthase [16]): 6.3 µM (active) | IC50 (Fatty acid synthase [17]): 4.89 µM (active) | IC50 (Albumin): > 94.1 µM (inactive)

O=C(/C=C/c1ccc(O)cc1)c1ccc(O)cc1O [ISOLIQUIRITIGENIN]
CC50 (Vero [18]): > 25 µM (active) | EC50 [1]: > 91.1 µM (inactive) | EC50 [2]: > 91.1 µM (inactive)
